Laboratory results: patent publication US8802597B2, “Herbicidal pyrimidines” (E I du Pont de Nemours and Company, priority 2003, dated 2014)

Key:
[1] = system: duck salad (Heteranthera limosa); test: Test C flooded paddy test; type: in vivo; details: Flood, scale 0 to 100
How it was run: (§1)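 Visual injury scores (0 = no effect, 100 = complete control) relative to untreated controls, assessed 12 to 14 days after treatment in the greenhouse. Species in the flooded paddy system—rice, barnyardgrass, duck salad, umbrella sedge—were treated at the 2-leaf stage.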

[2] = system: umbrella sedge (Cyperus difformis); test: Test C flooded paddy test; type: in vivo; details: Flood, scale 0 to 100
How it was run: as §1

[3] = system: barnyardgrass (Echinochloa crus-galli); test: Test C flooded paddy test; type: in vivo; details: Flood
How it was run: as §1

[4] = system: rice (Oryza sativa); test: Test C flooded paddy test; type: in vivo; details: Flood, scale 0 to 100
How it was run: as §1

[5] = 500 g ai/ha, scale 0 to 100 (0 no effect, 100 complete control)

Row | Compound | melting point [°C] | Plant response rating, Ducksalad ([1]; 62 g ai/ha) | Plant response rating, Ducksalad ([1]; 250 g ai/ha) | Plant response rating, Ducksalad ([1]; 500 g ai/ha) | Plant response rating, Sedge, Umbrella ([2]; 62 g ai/ha) | Plant response rating, Sedge, Umbrella ([2]; 250 g ai/ha) | Plant response rating, Sedge, Umbrella ([2]; 500 g ai/ha) | Plant response rating, Barnyardgrass ([3]; 62 g ai/ha, scale 0 to 100) | Plant response rating, Barnyardgrass ([3]; 125 g ai/ha, scale 0 to 100) | Plant response rating, Barnyardgrass ([3]; 250 g ai/ha, scale 0 to 100) | Plant response rating, Barnyardgrass [3, 5] | Plant response rating, Rice ([4]; 62 g ai/ha) | Plant response rating, Rice ([4]; 125 g ai/ha) | Plant response rating, Rice ([4]; 250 g ai/ha) | Plant response rating, Rice ([4]; 500 g ai/ha) | Plant response rating, Ducksalad ([1]; 125 g ai/ha) | Plant response rating, Sedge, Umbrella ([2]; 125 g ai/ha)
1 | CCOC(=O)c1nc(C2CC2)nc(N)c1Br [Compound 1, ethyl 6-amino-5-bromo-2-cyclopropyl-4-pyrimidinecarboxylate] | 107 to 108 | 0 | 0 | 0 | 0 | 0 | 0 | 0 | 0 | 15 | 25 | 0 | 0 | 0 | 0 | – | –
2 | COC(=O)c1nc(C2CC2)nc(N)c1Br [Compound 2, methyl 6-amino-5-bromo-2-cyclopropyl-4-pyrimidinecarboxylate] | 148 to 150 | 50 | 90 | 95 | 0 | 0 | 25 | 0 | 20 | 45 | 75 | 0 | 25 | 45 | 65 | 70 | 0
